Laboratory results taken from ChEMBL document CHEMBL5729637, “Beta-amino acid derivative, kinase inhibitor and pharmaceutical composition containing the same, and method for performing an in vivo related application that benefits from the inhibition of a kinase” (2023).

Target: T1, Mitogen-activated protein kinase kinase kinase 19 (Homo sapiens, UniProt Q56UN5)
T1 sequence (Q56UN5 whole entry): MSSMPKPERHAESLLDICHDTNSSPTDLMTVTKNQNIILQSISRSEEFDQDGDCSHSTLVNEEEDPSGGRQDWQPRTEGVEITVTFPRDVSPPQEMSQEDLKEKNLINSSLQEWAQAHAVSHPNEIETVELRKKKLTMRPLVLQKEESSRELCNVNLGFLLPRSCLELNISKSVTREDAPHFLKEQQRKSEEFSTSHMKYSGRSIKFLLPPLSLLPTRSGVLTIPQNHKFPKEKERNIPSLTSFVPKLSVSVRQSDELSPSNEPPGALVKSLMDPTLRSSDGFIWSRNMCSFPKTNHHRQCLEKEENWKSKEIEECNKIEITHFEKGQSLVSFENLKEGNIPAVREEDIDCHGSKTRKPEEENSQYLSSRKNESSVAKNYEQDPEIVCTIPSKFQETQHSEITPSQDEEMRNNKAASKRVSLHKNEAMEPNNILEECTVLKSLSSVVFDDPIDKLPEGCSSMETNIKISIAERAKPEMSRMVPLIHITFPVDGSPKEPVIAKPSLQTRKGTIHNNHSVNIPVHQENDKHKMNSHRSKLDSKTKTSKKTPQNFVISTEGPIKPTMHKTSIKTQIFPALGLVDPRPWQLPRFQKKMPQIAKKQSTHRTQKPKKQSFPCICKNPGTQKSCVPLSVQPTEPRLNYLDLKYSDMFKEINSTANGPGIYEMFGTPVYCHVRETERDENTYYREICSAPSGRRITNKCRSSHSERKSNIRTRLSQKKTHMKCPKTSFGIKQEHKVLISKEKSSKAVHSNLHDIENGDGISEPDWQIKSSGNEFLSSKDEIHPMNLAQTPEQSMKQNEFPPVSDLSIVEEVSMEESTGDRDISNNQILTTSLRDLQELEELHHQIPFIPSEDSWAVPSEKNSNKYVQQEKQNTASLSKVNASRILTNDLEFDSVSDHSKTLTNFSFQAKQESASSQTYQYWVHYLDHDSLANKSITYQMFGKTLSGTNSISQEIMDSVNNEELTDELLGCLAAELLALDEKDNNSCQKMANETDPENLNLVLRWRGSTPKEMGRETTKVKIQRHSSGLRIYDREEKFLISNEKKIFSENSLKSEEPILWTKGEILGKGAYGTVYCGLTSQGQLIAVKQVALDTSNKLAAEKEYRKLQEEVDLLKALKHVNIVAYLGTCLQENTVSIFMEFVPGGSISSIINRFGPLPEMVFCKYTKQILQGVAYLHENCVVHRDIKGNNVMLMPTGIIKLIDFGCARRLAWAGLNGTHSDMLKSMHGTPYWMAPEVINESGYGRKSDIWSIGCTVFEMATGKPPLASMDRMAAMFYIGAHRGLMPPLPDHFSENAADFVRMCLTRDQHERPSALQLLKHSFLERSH
Experiment: In Vitro Effect Assay: Table 5: The experimental procedure referred to the Z′-LYTE Screening Protocol and Assay Conditions provided by ThermoFisher Scientific. C-1. […] Peptide/Kinase Mixture was pre-diluted with Kinase Buffer to 2× working concentration. ATP solution was pre-diluted with Kinase Buffer (50 mM HEPES pH 7.5, 0.01% BRIJ-35, 10 mM MgCl2, 1 mM EGTA) to 4× working concentration. […], which contains 2 mg/mL Phosphatidyl Serine, 0.2 mg/mL DAG in 20 mM HEPES, pH 7.4 and 0.3% CHAPS, and was pre-diluted 10 fold with development buffer.C-2. Analytical Method. 1. 100 nL of the above diluted test compound and 2.4 μL of kinase buffer were added to a black 384-well plate (Corning, Cat. NO. 4514), then add 5 μL of the peptide/kinase mixture mentioned above was added thereto, and after that 2.5 μL of ATP solution was added thereto, and the culture plate was shaken for 30 seconds.2. Next, the culture plate was placed at room temperature and incubated for 60 minutes.3. After that 5 μL of the development reagent solution was added and the culture plate was shaken for 30 seconds in the dark, and then the data was read and analyzed with a fluorescence plate reader. […]

| SMILES | IC50 [µM] |
| --- | --- |
| NCC(Oc1ccc(C(F)(F)F)cc1)C(=O)Nc1ccc(-c2cn[nH]c2)cc1 (configuration not stated) | > 10 |
| NCC(C(=O)Nc1ccc(-c2cn[nH]c2)cc1)c1ccc(CO)cc1 (configuration not stated) | > 1 |
